Molecular target: T1, PARP1 (Homo sapiens, UniProt P09874)
T1 construct: purchased BPS 80501
Assay: PARP1 enzyme assay (histone-coated plate, chemiluminescence)
Format: biochemical
Details: PARP1 0.02 nM, DNA 0.8 nM, NAD+ 3.5 µM; read-out: PARP-1 IC50
Method: 1.1.1. Buffer preparation: PBST: 1× PBS, 0.05% Tween-20; blocking buffer: 1× PBS, 0.05% Tween-20, 5% BSA; reaction buffer: 50 mM Tris-HCl (pH 7.5), 0.005% Tween-20, 0.01% BSA.
1.1.2. Coating: A 50 ng/mL Histone coating solution was prepared with 1× PBS and then transferred to a 384-well reaction plate at 25 µL/well. The plate was coated at 4 °C overnight.
1.1.3. Washing: After the coating was completed, the coating solution was discarded, and the plate was washed with the PBST solution. The method was as follows: PBST was transferred to the 384-well reaction plate at 50 µL/well, and the plate was left to stand for 5 min. The washing solution was then discarded, and the plate was refilled. The washing step was repeated 3 times. Finally, the reaction plate was patted dry and left for the next step of blocking.
1.1.4. Blocking: The blocking buffer was transferred to the 384-well reaction plate at 50 µL/well, and the plate was left to stand for 1 h.
Washing: After the blocking was completed, the blocking buffer was discarded, and the plate was washed 3 times with the PBST solution according to the method in step 2. Finally, the reaction plate was patted dry.
1.1.5. A 1000-fold solution of a compound was prepared and then transferred at 1 µL/well to a 96-well plate containing 199 µL of the reaction buffer. The mixture was well mixed, and then the well mixed compound solution was transferred to the 384-well reaction plate at 5 µL/well. 1.1.6. A 25/10-fold PARP1-DNA solution was prepared with the reaction buffer and then transferred to the 384-well reaction plate at 10 µL/well. For the negative control wells, 10 µL
of the DNA solution was transferred. The final concentrations of PARP1 and DNA were 0.02 nM and 0.8 nM, respectively.
1.1.9. Washing: After the reaction was completed, the reaction solution was discarded, and the plate was washed 3 times with the PBST solution according to the method in step 2. Finally, the reaction plate was patted dry.
1.1.10. A primary antibody (anti-Poly/Mono-ADP Ribose Rabbit mAb) was diluted 2000-fold with the blocking buffer and then added at 20 µL/well.
1.1.11. Washing: The primary antibody was discarded, and the plate was washed 3 times with the PBST solution according to the method in step 2. Finally, the reaction plate was patted dry.
1.1.12. A secondary antibody (anti-rabbit IgG, HRP-linked Antibody) was diluted 2000-fold with the blocking buffer and then added at 20 µL/well.
1.1.13. Washing: The secondary antibody was discarded, and the plate was washed 3 times with the PBST solution according to the method in step 2. Finally, the reaction plate was patted dry.
1.1.14. Color development: Femto-ECL Substrate A and Femto-ECL Substrate B were mixed at a ratio of 1:1, and the mixture was transferred to the 384-well reaction plate at 25 µL/well. 1.1.15. Reading: The chemiluminescence values (RLU) were measured using Envision.

T1 sequence (P09874 whole entry): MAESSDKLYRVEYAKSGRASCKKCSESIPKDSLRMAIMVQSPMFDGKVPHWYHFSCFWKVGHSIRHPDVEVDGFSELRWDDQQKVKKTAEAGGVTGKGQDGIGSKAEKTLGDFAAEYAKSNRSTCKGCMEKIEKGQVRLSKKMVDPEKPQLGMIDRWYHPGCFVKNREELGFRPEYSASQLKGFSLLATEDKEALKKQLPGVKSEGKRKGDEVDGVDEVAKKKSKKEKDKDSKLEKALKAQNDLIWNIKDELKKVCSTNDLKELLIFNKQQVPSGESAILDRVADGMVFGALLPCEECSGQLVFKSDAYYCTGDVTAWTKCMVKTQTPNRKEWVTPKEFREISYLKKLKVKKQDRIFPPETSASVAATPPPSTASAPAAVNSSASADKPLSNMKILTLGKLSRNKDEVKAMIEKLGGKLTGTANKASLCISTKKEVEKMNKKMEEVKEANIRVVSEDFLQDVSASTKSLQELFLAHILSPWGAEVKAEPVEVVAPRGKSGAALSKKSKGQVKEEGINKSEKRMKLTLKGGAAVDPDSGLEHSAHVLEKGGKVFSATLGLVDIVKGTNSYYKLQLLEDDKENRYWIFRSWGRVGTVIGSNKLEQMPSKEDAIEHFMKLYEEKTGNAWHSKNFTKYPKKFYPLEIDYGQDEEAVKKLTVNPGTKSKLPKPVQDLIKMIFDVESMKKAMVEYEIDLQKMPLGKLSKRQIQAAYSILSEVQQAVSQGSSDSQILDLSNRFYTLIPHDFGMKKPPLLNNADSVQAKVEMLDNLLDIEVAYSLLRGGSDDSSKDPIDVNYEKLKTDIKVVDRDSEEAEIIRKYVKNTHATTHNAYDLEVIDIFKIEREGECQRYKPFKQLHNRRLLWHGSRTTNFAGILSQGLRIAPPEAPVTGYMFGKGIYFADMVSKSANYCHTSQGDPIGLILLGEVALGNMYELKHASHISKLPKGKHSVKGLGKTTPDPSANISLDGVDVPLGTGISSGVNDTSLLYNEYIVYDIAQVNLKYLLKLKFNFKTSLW

IC50 [nM] | Structure (SMILES)
≤ 50 | CCc1cc2c([nH]c1=O)CC(CN1CCN(c3ccc(C(=O)NC)nc3)CC1)CC2 (centres unmarked) [Compound 15, 5-(4-((3-Ethyl-2-oxo-1,2,5,6 ,7,8-hexahydroquinoline-7-yl)methyl)piperazin-1-yl)-N-methylpicolinamide]
≤ 50 | CCc1cc2c([nH]c1=O)CC(CN1CCN(c3ccc(C(=O)NC)nc3F)CC1)CC2 (centres unmarked) [Compound 16, 5-(4-((3-Ethyl-2-oxo-1,2,5,6 ,7,8-hexahydroquinoline-7-yl)methyl)piperazin-1-yl)-6-fl uoro-N-methylpicolinamide]
≤ 50 | CCc1cc2c([nH]c1=O)CC(CN1CCN(c3ccc(C(=O)NC)nc3C)CC1)CC2 (centres unmarked) [Compound 17, 5-(4-((3-Ethyl-2-oxo-1,2,5,6 ,7,8-hexahydroquinoline-7-yl)methyl)piperazin-1-yl)-N,6-dimethylpicolinamide]
≤ 50 | [2H]C([2H])([2H])NC(=O)c1ccc(N2CCN(CC3CCc4cc(CC)c(=O)[nH]c4C3)CC2)cn1 (centres unmarked) [Compound 18, 5-(4-((3-Ethyl-2-oxo-1,2,5,6 ,7,8-hexahydroquinoline-7-yl)methyl)piperazin-1-yl)-N-(methyl-d3)picolinamide]
≤ 50 | [2H]C([2H])([2H])NC(=O)c1ccc(N2CCN(CC3CCc4cc(CC)c(=O)[nH]c4C3)CC2)c(F)n1 (centres unmarked) [Compound 19, 5-(4-((3-Ethyl-2-oxo-1,2,5,6 ,7,8-hexahydroquinoline-7-yl)methyl)piperazin-1-yl)-6-fl uoro-N-(methyl-d3)picolinamide]
≤ 50 | CCc1cc2c([nH]c1=O)CC(CN1CCN(c3ccc(C(=O)NC4CC4)nc3)CC1)CC2 (centres unmarked) [Compound 20, N-Cyclopropyl-5-(4-((3-ethyl-2-oxo-1,2,5,6,7,8-hexahydroquinoline-7-yl)methyl)piperazin-1-yl)picolinamide]
≤ 50 | CCc1cc2c([nH]c1=O)CC(CN1CCN(c3ccc(C(=O)NC4CC4)nc3F)CC1)CC2 (centres unmarked) [Compound 21, N-Cyclopropyl-5-(4-((3-ethyl-2-oxo-1,2,5,6,7,8-hexahydroquinoline-7-yl)methyl)piperazin-1-yl)-6-fluoropicoli namide]
≤ 50 | CCc1cc2c([nH]c1=O)CC(CN1CCN(c3ccc(C(=O)NCC(F)F)nc3F)CC1)CC2 (centres unmarked) [Compound 22, N-(2,2-Difluoroethyl)-5-(4-( (3-ethyl-2-oxo-1,2,5,6,7,8-hexahydroquinoline-7-yl)methyl)piperazin-1-yl)-6-fluoro picolinamide]
50 to 500 | CCc1cc2c([nH]c1=O)CC(CN1CCN(c3ccc(C(=O)NC)nc3F)C[C@@H]1C)OC2 (stereo partly drawn) [Example 72, 5-((3S)-4-((3-Ethyl-2-oxo-1,5,7,8-tetrahydro-2H-pyrano[4,3-b]pyridin-7-yl)methyl)-3-methylpiperazin-1-yl)-6-fluoro-N-methylpicolinamide]
50 to 500 | CCc1cc2c([nH]c1=O)CC(CN1CCN(c3ccc(C(=O)NC)nc3F)C[C@H]1C)OC2 (stereo partly drawn) [Example 75, 5-((3R)-4-((3-Ethyl-2-oxo-1,5,7,8-tetrahydro-2H-pyrano[4,3-b]pyridin-7-yl)methyl)-3-methylpiperazin-1-yl)-6-fluoro-N-methylpicolinamide]
≤ 50 | CNC(=O)c1ccc(N2CCN(C[C@@H]3Cc4[nH]c(=O)c(C)cc4CO3)CC2)c(Cl)n1 [Example 94, (S)-6-Chloro-N-methyl-5-(4-((3-methyl-2-oxo-1,5,7,8-tetrahydro-2H-pyrano[4,3-b]pyridin-7-yl)methyl)piperazin-1-yl)picolinamide]

More lines, now with the values behind:

Structure (SMILES) | IC50 [nM]
CCc1cc2c([nH]c1=O)CC(CN1CC=C(c3ccc(C(=O)NC4CC4)nc3F)CC1)OC2 (centres unmarked) [Compound 7, N-Cyclopropyl-1'-((3-ethyl-2-oxo-1,5,7,8-tetrahydro-2H -pyrano[4,3-b]pyridin-7-yl)methyl)-2-fluoro-1',2',3',6'-tetrahydro-[3,4'-bipyridine]-6-carboxamide] | ≤ 50
CCc1cc2c([nH]c1=O)CC(CN1CC=C(c3ccc(C(=O)NC4CC4)nc3)CC1)OC2 (centres unmarked) [Compound 8, N-Cyclopropyl-1'-((3-ethyl-2-oxo-1,5,7,8-tetrahydro-2H -pyrano[4,3-b]pyridin-7-yl)methyl)-1',2',3',6'-tetrahydro-[3,4'-bipyridine]-6-carboxamide] | ≤ 50
CCc1cc2c([nH]c1=O)CC(CN1CC=C(c3ccc(C(=O)NC)nc3)CC1)CC2 (centres unmarked) [Compound 23, 1'-((3-Ethyl-2-oxo-1,2,5,6,7,8-hexahydroquinoline-7-yl)methyl)-N-methyl-1',2',3',6'-tetrahydro-[3,4'-bipyridine]-6-carboxamide] | ≤ 50
CCc1cc2c([nH]c1=O)CC(CN1CC=C(c3ccc(C(=O)NC)nc3F)CC1)CC2 (centres unmarked) [Compound 24, 1'-((3-Ethyl-2-oxo-1,2,5,6,7,8-hexahydroquinoline-7-yl)methyl)-2-fluoro-N-methyl-1',2',3',6'-tetrahydro-[3,4'-bipyridine]-6-carboxamide] | ≤ 50
CCc1cc2c([nH]c1=O)CC(CN1CC=C(c3ccc(C(=O)NC)nc3C)CC1)CC2 (centres unmarked) [Compound 25, 1'-((3-Ethyl-2-oxo-1,2,5,6,7,8-hexahydroquinoline-7-yl)methyl)-N,2-dimethyl-1',2',3 ',6'-tetrahydro-[3,4'-bipyridine]-6-carboxamide] | ≤ 50
[2H]C([2H])([2H])NC(=O)c1ccc(C2=CCN(CC3CCc4cc(CC)c(=O)[nH]c4C3)CC2)cn1 (centres unmarked) [Compound 26, 1'-((3-Ethyl-2-oxo-1,2,5,6,7,8-hexahydroquinoline-7-yl)methyl)-N-(methyl-d3)-1',2', 3',6'-tetrahydro-[3,4'-bipyridine]-6-carboxamide] | ≤ 50
[2H]C([2H])([2H])NC(=O)c1ccc(C2=CCN(CC3CCc4cc(CC)c(=O)[nH]c4C3)CC2)c(F)n1 (centres unmarked) [Compound 27, 1'-((3-Ethyl-2-oxo-1,2,5,6,7,8-hexahydroquinoline-7-yl)methyl)-2-fluoro-N-(methyl-d3)-1',2',3',6'-tetrahydro-[3,4' -bipyridine]-6-carboxamide] | ≤ 50
CCc1cc2c([nH]c1=O)CC(CN1CC=C(c3ccc(C(=O)NC4CC4)nc3)CC1)CC2 (centres unmarked) [Compound 28, N-Cyclopropyl-1'-((3-ethyl-2-oxo-1,2,5,6,7,8-hexahydroquinoline-7-yl)methyl)-1',2', 3',6'-tetrahydro-[3,4'-bipyridine]-6-carboxamide] | ≤ 50
CCc1cc2c([nH]c1=O)CC(CN1CC=C(c3ccc(C(=O)NC4CC4)nc3F)CC1)CC2 (centres unmarked) [Compound 29, N-Cyclopropyl-1'-((3-ethyl-2-oxo-1,2,5,6,7,8-hexahydroquinoline-7-yl)methyl)-2-flu oro-1',2',3',6'-tetrahydro-[3,4 '-bipyridine]-6-carboxamide] | ≤ 50
CCc1cc2c([nH]c1=O)CC(CN1CC=C(c3ccc(C(=O)NCC(F)F)nc3F)CC1)CC2 (centres unmarked) [Compound 30, N-(2,2-Difluoroethyl)-1'-((3-ethyl-2-oxo-1,2,5,6,7,8-hexahydroquinoline-7-yl)methyl)-2-fluoro-1',2',3',6'-tetrahy dro-[3,4'-bipyridine]-6-carb oxamide] | ≤ 50
CCc1nc2c([nH]c1=O)C[C@@H](CN1CCN3c4ccc(C(=O)NC)nc4COC[C@H]3C1)CC2 [Example 105] | ≤ 50

Tested on: BRCA wild-type DLD-1 cells
Assay: Anti-proliferative activity against cells (CCK8): DLD-1
Format: cell-based
Details: Homo sapiens, 72 h + 96 h culture
Method: BRCA wild-type DLD-1 cells were cultured in an RPMI-1640 medium containing 10% fetal bovine serum, 100 U/mL penicillin, and 100 µg/mL streptomycin, and incubated in an incubator with 5% saturated CO2 at 37 °C. When the cells grew to 80% confluence, they were collected, centrifuged at 300 g for 10 min, and then plated onto a 96-well plate at 1000 cells/well. After 24 h, different final concentrations (0 µM, 1 µM, and 10 µM) of PARPi were added, and the cells were cultured for another 72 h. The cells were subjected to medium exchange treatment (re-supplemented with PARPi at the same final concentrations) and then cultured for another 96 h. The 96-well plate was taken out.

Structure (SMILES) | IC50 [nM]
[2H]C([2H])([2H])NC(=O)c1ccc(N2CCN(C([2H])([2H])[C@H]3CCc4nc(C)c(=O)[nH]c4C3)CC2)c(F)n1 [Example 84, (S)-6-Fluoro-N-(methyl-d3)-5-(4-((2-methyl-3-oxo-3,4,5,6,7,8-hexahydroquinoxalin-6-yl)methyl-d2)piperazin-1-yl)picolinamide] | > 1000

Source: EP4768487A1, “FUSED LACTAM RING COMPOUND AND USE THEREOF” (Chengdu Zenitar Biomedical Technology Co., Ltd., priority 2023, dated 2025)
